“And” between values parts separate entries of the source, which are not always exact repeats. Identical values can stand only once.
What was measured:
[1] = tested on: Mouse colon cancer Colon 26; assay: Antitumor effect on mouse colon cancer Colon 26-transplanted mouse; assay type: in vivo; conditions: for Relative tumor volume mean ± SD: 12th day after initiation of administration, day of initiation = 1.0; for suppression of tumor growth (in words) / dose dependence of tumor growth suppression (in words): single administration; for dose dependence of tumor growth suppression (in words): doses of Table 1
Description: Mouse colon cancer Colon 26 cells subcutaneously subcultured in a BALB/c mouse were prepared in the form of a block which measured about 2 mm on each side, and the block was subcutaneously transplanted on the dorsal part of a CDF1 mouse using a trocar. […] The tumor volume on the day of initiation of administration was taken as 1.0, and while taking the 12th day after the initiation of administration as the day of determination, the relative tumor volume of each administered group was determined. The dose in the compounds of the present invention is converted to that of MTX.

[2] = tested on: rat collagen-induced arthritis model; assay: Anti-inflammatory evaluation using rat collagen-induced arthritis model (Test Example 3)
[3] = tested on: rat collagen-induced arthritis model; assay: Anti-inflammatory evaluation 2 using rat collagen-induced arthritis model (Test Example 4); assay type: in vivo; conditions: 8th, 15th and 22nd day after sensitization
Description: The test was carried out in the same manner as in Test Example 3. […] The groups administered with 1.00 mg/kg (convert to dose of MTX) and 1.25 mg/kg (convert to dose of MTX) of MTX_G-40, and the group administered with 2.5 mg/kg of MTX were administered with the drug through the tail vein on the 1st day, 8th day, 15th day and 22nd day after sensitization.

[4] = once 25 mg/kg in terms of MTX, tail vein
[5] = once 25 mg/kg in terms of MTX, tail vein, 25 mg/kg
[6] = once 50 mg/kg in terms of MTX, tail vein
[7] = 15 mg/kg/day tail vein, 5 successive days (total 75 mg/kg)

PEG-Asp40(α-Tyramine-MTX)-Ac [MTX_A-40]
Toxicity (death/n) [1, 4]: 0/3 | Relative tumor volume mean ± SD [1, 5]: 6.8 and 6.8 ± 0.7 | death of toxicity (in words) ([1]; once 50 mg/kg in terms of MTX): one animal died of toxicity | Toxicity (death/n) [1, 6]: 1/3 | Relative tumor volume mean ± SD ([1]; once 50 mg/kg in terms of MTX, tail vein, 50 mg/kg): 4.8 and 4.8 ± 2.8 | suppression of tumor growth (in words) [1]: strongly suppress the growth of tumor with a single administration | dose dependence of tumor growth suppression (in words) [1]: tumor growth is suppressed in a manner dependent on the amount of administration | anti-inflammatory effect, arthritis score of left footpad (FIG. 2) ([2]; 2.5 mg/kg on 1st day, or 1.25 mg/kg on 1st and 8th day after sensitization, in terms of MTX, tail vein): delayed the time of onset of inflammation

PEG-Asp40(γ-Tyramine-MTX)-Ac [MTX_G-40]
anti-inflammatory effect, arthritis score of left footpad (FIG. 3) ([3]; 1.00 mg/kg (dose of MTX) tail vein on 1st): further delayed the time of onset of inflammation compared to MTX | anti-inflammatory effect, arthritis score of left footpad (FIG. 3) ([3]; 1.25 mg/kg (dose of MTX) tail vein on 1st): completely suppressed the onset of inflammation for the 28 days of monitoring

CN(Cc1cnc2nc(N)nc(N)c2n1)c1ccc(C(=O)N[C@@H](CCC(=O)O)C(=O)O)cc1 [MTX, methotrexate, reference compound]
antitumor effect (in words) ([1]; 15 mg/kg for 5 successive days): an antitumor effect was not observed | Toxicity (death/n) [1, 7]: 0/3 | Relative tumor volume mean ± SD [1, 7]: 12.2 and 12.2 ± 8.1 | death of toxicity (in words) ([1]; 20 mg/kg for 5 successive days): all of the animals died of toxicity | Toxicity (death/n) ([1]; 20 mg/kg/day tail vein, 5 successive days (total 100 mg/kg)): 3/3 | anti-inflammatory effect, arthritis score of left footpad (FIG. 3) ([3]; 2.5 mg/kg tail vein on 1st): delayed the time of onset of inflammation as compared with the control group | anti-inflammatory effect, arthritis score of left footpad (FIG. 2) ([2]; 2.5 mg/kg tail vein on 1st and 8th day after sensitization): no anti-inflammatory effects were observed

PEG-Asp44(γ-Tyramine-MTX)-Ac [MTX_G-44]
Toxicity (death/n) ([1]; once 12.5 mg/kg in terms of MTX, tail vein): 0/3 | Relative tumor volume mean ± SD ([1]; once 12.5 mg/kg in terms of MTX, tail vein, 12.5 mg/kg): 8.2 and 8.2 ± 1.0 | death of toxicity (in words) ([1]; once 25 mg/kg in terms of MTX): one animal died of toxicity | Toxicity (death/n) [1, 4]: 1/3 | Relative tumor volume mean ± SD [1, 5]: 2.3 and 2.3 ± 1.1 | Toxicity (death/n) [1, 6]: 1/3 | Relative tumor volume mean ± SD [1, 6]: 0.4 ± 0.1 | suppression of tumor growth (in words) [1]: strongly suppress the growth of tumor with a single administration | dose dependence of tumor growth suppression (in words) [1]: tumor growth is suppressed in a manner dependent on the amount of administration

Source: US9149540B2, “Polymer conjugate of folic acid or folic acid derivative” (Nippon Kayaku Kabushiki Kaisha, priority 2008, dated 2015)
